Data as given in PMC9501280, “Anti-Inflammatory Activity of Soluble Epoxide Hydrolase Inhibitors Based on Selenoureas Bearing an Adamantane Moiety” (International Journal of Molecular Sciences, 2022).

What was measured:
[1] = tested on: LPS-stimulated C57bl/6j peritoneal macrophages; assay: Suppression of NO synthesis in LPS-stimulated peritoneal macrophages (Griess); type: cell-based, mice
Source text: For screening designed compounds according to their probable ability to limit inflammation, we used a test on the inhibition of LPS-induced activation of primary murine macrophages. The most prominent anti-inflammatory activity, defined as the suppression of nitric oxide synthesis by LPS-stimulated macrophages, was evident for compounds 4a and 5b. At the same time, for 4a, the cytotoxic concentration was 4.7–18.4 times higher than the effective anti-inflammatory concentration. […] According to the data obtained, there is no direct correlation between the efficiency of the inhibition of sEH and NO synthesis, which requires further studies of the anti-inflammatory activity of the investigated compounds.
Peritoneal macrophages (PM) were isolated from the peritoneal exudate of 30 male C57bl/6j mice. To accumulate PM, 1 mL of 3% peptone solution was injected intraperitoneally. After 3 days, the mice were euthanized by cervical dislocation. Cells of peritoneal exudate were obtained by aseptic washing of the abdominal cavity with 5 mL of sterile Hanks’s solution (+4–6 °C) without calcium and magnesium ions. The total number and viability of cells were assessed in a Goryaev counting chamber (Russia) with a 0.4% trypan blue staining (Sigma-Aldrich, St. Louis, MO, USA). The cell concentration was adjusted to 1.0 × 10^6 cells/mL in DMEM (Gibco) supplemented with 2 mM L-glutamine (Gibco), 10% heat-inactivated fetal bovine serum (BioClot, Passau, Germany), 100 U/mL penicillin and […] streptomycin (Gibco) and plated 200 μL/well in 96-well transparent plates (SPL Life Sciences Co., Ltd., Pochon, Korea). After 2 h at 37 °C in a humidified atmosphere with 5% CO2, wells were washed to remove nonadherent cells. After 24 h of incubation, 20 μL of the supernatants were substituted with 20 μL of solutions of the test compounds, followed with E. coli O127:B8 LPS (100 ng/mL final concentration) after 30 min. Experiments were run in 3 independent replicates.
The accumulation of nitrite anion (a stable decomposition product of NO produced by iNOS) in the supernatants was determined using a standard Griess reagent. Briefly, 50 μL of supernatants collected 22 h after incubation of PM with the test and control compounds were mixed with 50 μL of 1% sulfonamide in 2.5% H3PO4 and 50 μL of 0.1% N-(1-naphthyl) ethylenediamine in 2.5% H3PO4. After incubation at 23 °C for 10 min. in an orbital shaker, the optical density was determined at a wavelength of 550 nm with a microplate reader Infinite M200 PRO (Tecan, Austria).

E. coli MG1655 pSoxS-lux = assay: Lux-biosensor, superoxide anion radicals (PsoxS); type: cell-based, Escherichia coli; settings: compounds 1 μM to 1 mM; Standard = methyl viologen 100 μM
Experimental: (§1) The study was carried out with use of the following whole-cell bacterial biosensors: Escherichia coli MG1655 pOxyR-lux, E. coli MG1655 pDps, E. coli MG1655 pSoxS-lux, E. coli MG1655 pColD-lux, E. coli MG1655 pAlkA-lux, E. coli MG1655 pXen7, Bacillus subtilis 168 pNK-AlkA, B. subtilis 168 pNK-MrgA and B. subtilis 168 pNK-DinC. These biosensors by the quantitation of bacterial stress promoters’ activity, make it possible to determine oxidative stress caused by hydrogen peroxide and the superoxide anion radical, SOS response, DNA alkylation, or general toxicity in Gram-positive and Gram-negative B. subtilis and E. coli cells. We used concentrations from 1 μM to 1 mM of the studied compounds added to the suspension of biosensor cells. […]
(§2) The bioluminescence of cells was measured using a Synergy HT luminometer (Biotek, Winooski, VT, USA) at room temperature. Lux biosensors based on E. coli were grown to an early logarithmic phase (OD ≈ 0.1) to achieve a background luminescence approximately 100–1000 RLU at the beginning of the measurements. Lux biosensors based on B. subtilis were grown to a logarithmic phase with an optical density OD ≈ 0.6 (and background luminescence of about 10–500 RLU). […] The kinetics of change in luminescence was measured at room temperature. […]

B. subtilis 168 pNK-DinC = assay: Lux-biosensor, SOS response (PdinC); type: cell-based, Bacillus subtilis; settings: compounds 1 μM to 1 mM; Standard = Mitomycin C 30 μM
Experimental: as §1, §2

B. subtilis 168 pNK-MrgA = assay: Lux-biosensor, hydrogen peroxide (PmrgA); type: cell-based, Bacillus subtilis; settings: compounds 1 μM to 1 mM; Standard = hydrogen peroxide 100 μM
Experimental: as §1, §2

[Se]=C(Nc1ccccc1)NC12CC3CC(CC(C3)C1)C2 [4a, 1-(Adamantan-1-yl)-3-phenylselenourea]
cytotoxic concentration versus effective anti-inflammatory concentration ([1]; CC50 (MTT, LDH) over NO synthesis IC50, peritoneal macrophages): 4.7–18.4 times
IC50 ([1]; Mus musculus, Peritoneal macrophage, 22 h, read-out: NO Synthesis, IC50 ± SE): 1600 ± 200 nM
max(Kind), E. coli MG1655 pSoxS-lux (E. coli MG1655 pSoxS-lux): 1.16 ± 0.19
max(Kind), B. subtilis 168 pNK-DinC (B. subtilis 168 pNK-DinC): 1.1 ± 0.4
max(Kind), B. subtilis 168 pNK-MrgA (B. subtilis 168 pNK-MrgA): 1.2 ± 0.5

[Se]=C(Nc1ccccc1)NC1C2CC3CC(C2)CC1C3 (stereo not drawn) [4g, 1-(Adamantan-2-yl)-3-phenylselenourea]
NO synthesis inhibition (in words) ([1]; LPS-stimulated macrophages): able to inhibit sEH but not NO synthesis
max(Kind), E. coli MG1655 pSoxS-lux (E. coli MG1655 pSoxS-lux): 1.0 ± 0.1
max(Kind), B. subtilis 168 pNK-DinC (B. subtilis 168 pNK-DinC): 1.1 ± 0.3
max(Kind), B. subtilis 168 pNK-MrgA (B. subtilis 168 pNK-MrgA): 1.2 ± 0.3
